Test results as given in PubChem BioAssay (NCI).
Values joined by “and” are separate entries in the source; they are usually repeats but may differ in a detail not shown here. Equal entries are not always repeated.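 Test compounds were applied to cells in 96-well plates for 48 hours at 5 doses. Abbreviation: GI50, concentration required for 50% inhibition of growth. TGI marks complete inhibition of growth.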

Columns and labels:
Test in all cases: NCI tumour cell line growth inhibition, 48 h
786-0 renal = system: 786-0 renal
A498 renal = system: A498 renal
A549 NSCLC = system: A549 NSCLC
ACHN renal = system: ACHN renal
BT-549 breast = system: BT-549 breast
CAKI-1 renal = system: CAKI-1 renal
CCRF-CEM leukemia = system: CCRF-CEM leukemia
COLO 205 colon = system: COLO 205 colon
DU-145 prostate = system: DU-145 prostate
EKVX NSCLC = system: EKVX NSCLC
HCT-116 colon = system: HCT-116 colon
HCT-15 colon = system: HCT-15 colon
HL-60(TB) leukemia = system: HL-60(TB) leukemia
HOP-62 NSCLC = system: HOP-62 NSCLC
HOP-92 NSCLC = system: HOP-92 NSCLC
HS 578T breast = system: HS 578T breast
HT29 colon = system: HT29 colon
IGROV1 ovarian = system: IGROV1 ovarian
K-562 leukemia = system: K-562 leukemia
KM12 colon = system: KM12 colon
LOX IMVI melanoma = system: LOX IMVI melanoma
M14 melanoma = system: M14 melanoma
MALME-3M melanoma = system: MALME-3M melanoma
MCF7 breast = system: MCF7 breast
MDA-MB-231 breast = system: MDA-MB-231 breast
MDA-MB-435 = system: MDA-MB-435
MOLT-4 leukemia = system: MOLT-4 leukemia
NCI-H226 lung = system: NCI-H226 lung
NCI-H23 lung = system: NCI-H23 lung
NCI-H460 lung = system: NCI-H460 lung
NCI-H522 lung = system: NCI-H522 lung
NCI/ADR-RES ovarian = system: NCI/ADR-RES ovarian
OVCAR-3 ovarian = system: OVCAR-3 ovarian
OVCAR-4 ovarian = system: OVCAR-4 ovarian
OVCAR-5 ovarian = system: OVCAR-5 ovarian
OVCAR-8 ovarian = system: OVCAR-8 ovarian
RPMI-8226 leukemia = system: RPMI-8226 leukemia
RXF 393 renal = system: RXF 393 renal
SF-268 CNS = system: SF-268 CNS
SF-295 CNS = system: SF-295 CNS
SF-539 CNS = system: SF-539 CNS
SK-MEL-2 melanoma = system: SK-MEL-2 melanoma
SK-MEL-28 melanoma = system: SK-MEL-28 melanoma
SK-OV-3 ovarian = system: SK-OV-3 ovarian
SN12C renal = system: SN12C renal
SNB-19 CNS = system: SNB-19 CNS
SNB-75 CNS = system: SNB-75 CNS
SR leukemia = system: SR leukemia
SW-620 colon = system: SW-620 colon
T-47D breast = system: T-47D breast
U251 CNS = system: U251 CNS
UACC-257 melanoma = system: UACC-257 melanoma
UACC-62 melanoma = system: UACC-62 melanoma
UO-31 renal = system: UO-31 renal

Nc1ccn([C@@H]2O[C@H](COP(=O)(O)O[C@@H]3C[C@H](n4cc(F)c(=O)[nH]c4=O)O[C@@H]3COP(=O)(O)O[C@@H]3C[C@H](n4cc(F)c(=O)[nH]c4=O)O[C@@H]3COP(=O)(O)O[C@@H]3C[C@H](n4cc(F)c(=O)[nH]c4=O)O[C@@H]3COP(=O)(O)O[C@@H]3C[C@H](n4cc(F)c(=O)[nH]c4=O)O[C@@H]3COP(=O)(O)O[C@@H]3C[C@H](n4cc(F)c(=O)[nH]c4=O)O[C@@H]3COP(=O)(O)O[C@@H]3C[C@H](n4cc(F)c(=O)[nH]c4=O)O[C@@H]3COP(=O)(O)O[C@@H]3C[C@H](n4cc(F)c(=O)[nH]c4=O)O[C@@H]3COP(=O)(O)O[C@@H]3C[C@H](n4cc(F)c(=O)[nH]c4=O)O[C@@H]3COP(=O)(O)O[C@@H]3C[C@H](n4cc(F)c(=O)[nH]c4=O)O[C@@H]3COP(=O)(O)O[C@@H]3C[C@H](n4cc(F)c(=O)[nH]c4=O)O[C@@H]3COP(=O)(O)OCCOCCOCCOCCOCCOCCO)[C@H](O)C2O)c(=O)n1 (stereo not given in full)
GI50 (786-0 renal): 0.00777 µM and 0.0131 µM
TGI (786-0 renal): 21.1 µM and > 100 µM
GI50 (A498 renal): 0.0204 µM and 0.0631 µM
TGI (A498 renal): 21.1 µM and > 100 µM
GI50 (A549 NSCLC): 0.00284 µM
TGI (A549 NSCLC): 21.1 µM and > 100 µM
GI50 (ACHN renal): 0.00745 µM
TGI (ACHN renal): 21.1 µM and > 100 µM
GI50 (BT-549 breast): 0.674 µM and 0.568 µM
TGI (BT-549 breast): 21.1 µM and > 100 µM
GI50 (CAKI-1 renal): 0.00832 µM
TGI (CAKI-1 renal): 21.1 µM and > 100 µM
GI50 (CCRF-CEM leukemia): 0.0101 µM and 0.0175 µM
TGI (CCRF-CEM leukemia): 21.1 µM and > 100 µM
GI50 (COLO 205 colon): 0.00973 µM
TGI (COLO 205 colon): 21.1 µM and > 100 µM
GI50 (DU-145 prostate): 0.0185 µM and 0.0254 µM
TGI (DU-145 prostate): 21.1 µM and > 100 µM
TGI (EKVX NSCLC): > 100 µM
GI50 (HCT-116 colon): 0.013 µM
TGI (HCT-116 colon): 21.1 µM and > 100 µM
GI50 (HCT-15 colon): 0.697 µM and 0.179 µM
TGI (HCT-15 colon): 21.1 µM and > 100 µM
TGI (HL-60(TB) leukemia): 21.1 µM and > 100 µM
GI50 (HOP-62 NSCLC): 0.00841 µM
TGI (HOP-62 NSCLC): 21.1 µM and > 100 µM
GI50 (HOP-92 NSCLC): 3.86 µM and 14.1 µM
TGI (HOP-92 NSCLC): 21.1 µM and > 100 µM
GI50 (HS 578T breast): > 100 µM
TGI (HS 578T breast): > 100 µM
GI50 (HT29 colon): 0.0171 µM
TGI (HT29 colon): 21.1 µM and > 100 µM
GI50 (IGROV1 ovarian): 1.63 µM and 1.45 µM
TGI (IGROV1 ovarian): 21.1 µM and > 100 µM
GI50 (K-562 leukemia): 0.489 µM and 0.0858 µM
TGI (K-562 leukemia): 21.1 µM and > 100 µM
GI50 (KM12 colon): 0.178 µM
TGI (KM12 colon): 21.1 µM
GI50 (LOX IMVI melanoma): 0.0054 µM
TGI (LOX IMVI melanoma): 21.1 µM and > 100 µM
GI50 (M14 melanoma): 0.00911 µM and 0.0126 µM
TGI (M14 melanoma): 2.56 µM and 4.9 µM
GI50 (MALME-3M melanoma): 2.37 µM and 11.8 µM
TGI (MALME-3M melanoma): 21.1 µM and > 100 µM
GI50 (MCF7 breast): 0.00211 µM
TGI (MCF7 breast): 21.1 µM and > 100 µM
TGI (MDA-MB-231 breast): 21.1 µM and > 100 µM
GI50 (MDA-MB-435): 1.28 µM and 0.233 µM
TGI (MDA-MB-435): 21.1 µM and > 100 µM
GI50 (MOLT-4 leukemia): 0.0246 µM and 0.0443 µM
TGI (MOLT-4 leukemia): 21.1 µM and > 100 µM
GI50 (NCI-H226 lung): 9.21 µM and 24.6 µM
TGI (NCI-H226 lung): 21.1 µM and > 100 µM
GI50 (NCI-H23 lung): 0.0255 µM and 0.0445 µM
TGI (NCI-H23 lung): 21.1 µM and > 100 µM
GI50 (NCI-H460 lung): 0.00211 µM
TGI (NCI-H460 lung): 21.1 µM and > 100 µM
TGI (NCI-H522 lung): 21.1 µM and > 100 µM
GI50 (NCI/ADR-RES ovarian): 0.0146 µM and 0.0121 µM
TGI (NCI/ADR-RES ovarian): 21.1 µM and > 100 µM
GI50 (OVCAR-3 ovarian): > 100 µM
TGI (OVCAR-3 ovarian): > 100 µM
GI50 (OVCAR-4 ovarian): > 21.1 µM and 89.5 µM
TGI (OVCAR-4 ovarian): > 100 µM
GI50 (OVCAR-5 ovarian): > 100 µM
TGI (OVCAR-5 ovarian): > 100 µM
GI50 (OVCAR-8 ovarian): 0.0132 µM
TGI (OVCAR-8 ovarian): 21.1 µM and > 100 µM
GI50 (RPMI-8226 leukemia): 0.332 µM and 1.71 µM
TGI (RPMI-8226 leukemia): 21.1 µM and > 100 µM
GI50 (RXF 393 renal): 0.846 µM and 0.684 µM
TGI (RXF 393 renal): 21.1 µM and 70.4 µM
GI50 (SF-268 CNS): 0.00514 µM
TGI (SF-268 CNS): 21.1 µM and > 100 µM
GI50 (SF-295 CNS): 0.00328 µM
TGI (SF-295 CNS): 21.1 µM and > 100 µM
GI50 (SF-539 CNS): 0.00565 µM
TGI (SF-539 CNS): 21.1 µM and > 100 µM
TGI (SK-MEL-2 melanoma): > 100 µM
TGI (SK-MEL-28 melanoma): 21.1 µM and > 100 µM
GI50 (SK-OV-3 ovarian): 0.011 µM and 0.0185 µM
TGI (SK-OV-3 ovarian): 21.1 µM and > 100 µM
GI50 (SN12C renal): 0.0124 µM
TGI (SN12C renal): 21.1 µM
GI50 (SNB-19 CNS): 0.0721 µM and 0.0219 µM
TGI (SNB-19 CNS): 21.1 µM and > 100 µM
GI50 (SNB-75 CNS): 4.33 µM and 10.3 µM
TGI (SNB-75 CNS): 21.1 µM and > 100 µM
GI50 (SR leukemia): 0.621 µM
TGI (SR leukemia): 21.1 µM and > 100 µM
GI50 (SW-620 colon): 4.23 µM and 2.6 µM
TGI (SW-620 colon): 21.1 µM and > 100 µM
TGI (T-47D breast): 21.1 µM and > 100 µM
GI50 (U251 CNS): 0.0101 µM
TGI (U251 CNS): 21.1 µM and > 100 µM
GI50 (UACC-257 melanoma): 0.11 µM and 0.062 µM
TGI (UACC-257 melanoma): 21.1 µM and > 100 µM
GI50 (UACC-62 melanoma): 0.00557 µM and 0.0279 µM
GI50 (UO-31 renal): 0.00659 µM
TGI (UO-31 renal): 6.57 µM and 7.3 µM
